US11697648B2, “Fused pyrimidine pyridinone compounds as JAK inhibitors” (THERAVANCE BIOPHARMA R&D IP, LLC, priority 2019, dated 2023)

system: Caco-2 cell monolayers; experiment: Caco-2 permeation assay; format: in vitro ADME; conditions: 5 μM, A-B direction, with Verapamil (25 μM)
Method: Assay 4: Caco-2 Permeation Assay
The Caco-2 permeation assay was performed to model the ability of test compounds to pass through the intestine and get into the blood stream after oral administration. The rate at which test compounds in solution permeate a cell monolayer designed to mimic the tight junction of human small intestinal monolayers was determined.
CacoReady 24-well transwell plates were obtained from ADMEcell (Alameda, Calif.). The compounds were evaluated at a concentration of 5 μM from 10 mM DMSO stock solutions in duplicate (n=2). The passive permeability of the compounds tested was evaluated using Caco-2 cell monolayers along with Verapamil (25 μM) to inhibit P-gp transport proteins in the apical to basolateral (A-B) direction. The experiment was conducted in a 37° C., 5% CO2 incubator. Caco-2 culture media consisted of standard filtered DMEM, FCS 10%, L-Glutamine 1% and PenStrep 1%. Basal assay plate was prepared by adding 750 μL of transport buffer to A-B wells. A CacoReady™ plate was prepared by removing the Caco-2 media from the apical wells and replacing with fresh transport media (200 μL repeated for a total of 3 washes). Blank media (200 μL) was then replaced with diluted compound for A-B wells. To begin the incubation, the basal plate was removed from the incubator and the apical section was added on top of it. Samples (40 μL) were collected from the apical and basal compartments for time zero (t0). Samples were collected again after 120 minutes (t120) from the apical and basal compartments. All samples were diluted and prepared for bioanalysis by LC-MS/MS. The permeation coefficient (Kp, mean A to B+ Verapamil Papparent) in cm/sec was calculated as dQ (flux)/(dt×Area×concentration).
In this assay, a Kp value less than about 5×10^−6 cm/sec is considered favorable to minimize systemic exposure and target the colon. A Kp value less than about 10×10^−6 cm/sec may also be sufficient to minimize systemic exposure and target the colon.

SMILES | Caco Kp
C=CC(=O)N1CC(CCn2c(=O)ccc3cnc(Nc4cnn(CCN5CCOCC5)c4)nc32)C1 [Example 61] | A (A represents a value below 5×10^−6 cm/sec)
C=CC(=O)N1CC(CCn2c(=O)ccc3cnc(Nc4ccc(N5CCN(C(C)(C)C)CC5)cc4)nc32)C1 [Example 62] | B (B represents a value between 5×10^−6 and 10×10^−6 cm/sec)
C=CC(=O)N1CC(CCn2c(=O)ccc3cnc(Nc4cnn(CCF)c4)nc32)C1 [Example 63] | A (A represents a value below 5×10^−6 cm/sec)
C=CC(=O)N1CC(CCn2c(=O)ccc3cnc(Nc4ccc(-n5cccn5)cc4)nc32)C1 [Example 66] | C (C represents a value between 10×10^−6 and 30×10^−6 cm/sec)
C=CC(=O)N1CC(CCn2c(=O)ccc3cnc(Nc4ccc(-n5ccnn5)cc4)nc32)C1 [Example 67] | B (B represents a value between 5×10^−6 and 10×10^−6 cm/sec)

biological target: JAK2 (Homo sapiens (Human), UniProt O60674); experiment: Biochemical JAK2 kinase assay (LanthaScreen); conditions: not given
Sequence (O60674 whole entry): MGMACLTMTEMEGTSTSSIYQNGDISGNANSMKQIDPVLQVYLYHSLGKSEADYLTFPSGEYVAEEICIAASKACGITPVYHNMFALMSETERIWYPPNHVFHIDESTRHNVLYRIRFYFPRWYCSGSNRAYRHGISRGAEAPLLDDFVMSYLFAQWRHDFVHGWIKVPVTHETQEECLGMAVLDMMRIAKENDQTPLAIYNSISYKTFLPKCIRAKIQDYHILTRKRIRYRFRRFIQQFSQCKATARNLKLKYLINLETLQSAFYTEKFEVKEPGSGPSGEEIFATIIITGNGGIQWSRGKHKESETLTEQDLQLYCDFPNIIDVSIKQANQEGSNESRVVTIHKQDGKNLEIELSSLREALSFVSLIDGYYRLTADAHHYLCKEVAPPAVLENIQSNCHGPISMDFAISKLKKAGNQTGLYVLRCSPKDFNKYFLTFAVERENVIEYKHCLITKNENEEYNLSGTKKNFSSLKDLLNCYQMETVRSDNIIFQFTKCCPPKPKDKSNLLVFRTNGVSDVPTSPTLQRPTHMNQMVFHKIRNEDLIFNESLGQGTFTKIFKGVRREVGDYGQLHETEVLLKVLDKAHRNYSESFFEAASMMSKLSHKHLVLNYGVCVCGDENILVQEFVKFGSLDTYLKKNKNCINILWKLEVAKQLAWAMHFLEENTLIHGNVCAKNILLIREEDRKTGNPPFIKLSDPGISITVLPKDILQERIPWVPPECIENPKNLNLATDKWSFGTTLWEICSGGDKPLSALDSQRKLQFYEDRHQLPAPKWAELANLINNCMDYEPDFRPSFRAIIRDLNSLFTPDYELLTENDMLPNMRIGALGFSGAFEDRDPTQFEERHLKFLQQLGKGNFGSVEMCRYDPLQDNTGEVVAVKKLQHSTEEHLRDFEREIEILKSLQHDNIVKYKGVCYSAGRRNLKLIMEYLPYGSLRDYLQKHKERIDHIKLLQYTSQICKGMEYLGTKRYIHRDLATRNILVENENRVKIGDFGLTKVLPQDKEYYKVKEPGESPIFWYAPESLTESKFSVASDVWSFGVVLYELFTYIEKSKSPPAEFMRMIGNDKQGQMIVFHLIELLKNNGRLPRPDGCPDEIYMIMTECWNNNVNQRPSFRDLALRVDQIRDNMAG
Procedure, shortened: (§1)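 GST-JAK + GFP-STAT1 peptide, HEPES pH 7.5/MgCl2/EGTA/Brij-35 buffer; cpd preincubation 1 h RT; ATP start, 1 h RT; stop with 10 mM EDTA + 2 nM Tb-anti-pSTAT1; TR-FRET 520/495. 4-parameter IC50 → pKi (Cheng-Prusoff).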

SMILES | JAK 2 (pKi)
C=CC(=O)N1CC(CCn2c(=O)ccc3cnc(Nc4cnn(CCN5CCOCC5)c4)nc32)C1 [Example 61] | E (E represents a pKi value of 7 or below (Ki of 100 nM or above))
C=CC(=O)N1CC(CCn2c(=O)ccc3cnc(Nc4ccc(N5CCN(C(C)(C)C)CC5)cc4)nc32)C1 [Example 62] | E (E represents a pKi value of 7 or below (Ki of 100 nM or above))
C=CC(=O)N1CC(CCn2c(=O)ccc3cnc(Nc4cnn(CCF)c4)nc32)C1 [Example 63] | E (E represents a pKi value of 7 or below (Ki of 100 nM or above))
C=CC(=O)N1CC(CCn2c(=O)ccc3cnc(Nc4ccc(-n5cccn5)cc4)nc32)C1 [Example 66] | E (E represents a pKi value of 7 or below (Ki of 100 nM or above))
C=CC(=O)N1CC(CCn2c(=O)ccc3cnc(Nc4ccc(-n5ccnn5)cc4)nc32)C1 [Example 67] | E (E represents a pKi value of 7 or below (Ki of 100 nM or above))

biological target: JAK3 (Homo sapiens (Human), UniProt P52333); experiment: Biochemical JAK3 kinase assay (LanthaScreen); conditions: not given
Sequence (P52333 whole entry): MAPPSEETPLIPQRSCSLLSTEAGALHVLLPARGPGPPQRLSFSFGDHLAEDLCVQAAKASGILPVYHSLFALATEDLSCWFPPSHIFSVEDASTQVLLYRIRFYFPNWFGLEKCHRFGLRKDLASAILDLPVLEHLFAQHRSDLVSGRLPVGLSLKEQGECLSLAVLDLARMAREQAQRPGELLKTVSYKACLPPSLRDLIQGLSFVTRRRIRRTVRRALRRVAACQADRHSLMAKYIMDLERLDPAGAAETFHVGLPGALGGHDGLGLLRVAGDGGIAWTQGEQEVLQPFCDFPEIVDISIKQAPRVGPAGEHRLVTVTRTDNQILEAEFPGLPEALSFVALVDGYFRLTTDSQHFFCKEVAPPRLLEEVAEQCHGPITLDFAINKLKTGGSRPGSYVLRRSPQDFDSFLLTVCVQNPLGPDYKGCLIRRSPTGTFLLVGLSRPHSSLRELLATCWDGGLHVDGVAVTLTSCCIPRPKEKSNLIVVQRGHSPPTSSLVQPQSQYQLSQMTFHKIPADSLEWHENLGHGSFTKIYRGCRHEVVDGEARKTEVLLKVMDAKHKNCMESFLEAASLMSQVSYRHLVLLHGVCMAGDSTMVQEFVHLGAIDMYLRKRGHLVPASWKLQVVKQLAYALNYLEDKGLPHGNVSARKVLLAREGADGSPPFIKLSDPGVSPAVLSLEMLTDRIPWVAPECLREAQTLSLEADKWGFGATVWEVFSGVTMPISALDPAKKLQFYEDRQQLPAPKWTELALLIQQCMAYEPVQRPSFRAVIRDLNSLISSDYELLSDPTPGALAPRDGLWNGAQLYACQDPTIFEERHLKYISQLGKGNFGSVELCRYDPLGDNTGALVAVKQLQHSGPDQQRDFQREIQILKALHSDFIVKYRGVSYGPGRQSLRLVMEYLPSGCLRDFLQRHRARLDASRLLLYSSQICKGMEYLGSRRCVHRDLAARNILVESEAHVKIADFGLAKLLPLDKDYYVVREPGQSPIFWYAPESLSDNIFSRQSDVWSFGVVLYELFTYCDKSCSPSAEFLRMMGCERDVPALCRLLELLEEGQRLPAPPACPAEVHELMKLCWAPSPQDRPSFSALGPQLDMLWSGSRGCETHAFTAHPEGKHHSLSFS
Procedure, shortened: as §1

SMILES | JAK 3 (pKi)
C=CC(=O)N1CC(CCn2c(=O)ccc3cnc(Nc4cnn(CCN5CCOCC5)c4)nc32)C1 [Example 61] | B (B represents pKi value between 9 and 10 (Ki between 1 nM and 0.1 nM))
C=CC(=O)N1CC(CCn2c(=O)ccc3cnc(Nc4ccc(N5CCN(C(C)(C)C)CC5)cc4)nc32)C1 [Example 62] | B (B represents pKi value between 9 and 10 (Ki between 1 nM and 0.1 nM))
C=CC(=O)N1CC(CCn2c(=O)ccc3cnc(Nc4cnn(CCF)c4)nc32)C1 [Example 63] | B (B represents pKi value between 9 and 10 (Ki between 1 nM and 0.1 nM))
C=CC(=O)N1CC(CCn2c(=O)ccc3cnc(Nc4ccc(-n5cccn5)cc4)nc32)C1 [Example 66] | B (B represents pKi value between 9 and 10 (Ki between 1 nM and 0.1 nM))
C=CC(=O)N1CC(CCn2c(=O)ccc3cnc(Nc4ccc(-n5ccnn5)cc4)nc32)C1 [Example 67] | B (B represents pKi value between 9 and 10 (Ki between 1 nM and 0.1 nM))

same assay, conditions: selectivity JAK3 over JAK1, difference of pKi

SMILES | JAK3 (pKi)-JAK1 (pKi)
C=CC(=O)N1CC(CCn2c(=O)ccc3cnc(Nc4cnn(CCN5CCOCC5)c4)nc32)C1 [Example 61] | A (A represents a value of 3 or above)
C=CC(=O)N1CC(CCn2c(=O)ccc3cnc(Nc4ccc(N5CCN(C(C)(C)C)CC5)cc4)nc32)C1 [Example 62] | A (A represents a value of 3 or above)
C=CC(=O)N1CC(CCn2c(=O)ccc3cnc(Nc4cnn(CCF)c4)nc32)C1 [Example 63] | A (A represents a value of 3 or above)
C=CC(=O)N1CC(CCn2c(=O)ccc3cnc(Nc4ccc(-n5cccn5)cc4)nc32)C1 [Example 66] | A (A represents a value of 3 or above)
C=CC(=O)N1CC(CCn2c(=O)ccc3cnc(Nc4ccc(-n5ccnn5)cc4)nc32)C1 [Example 67] | A (A represents a value of 3 or above)

system: IL-2 stimulated STAT5 phosphorylation in Tall-1 human T cell line (JAK3); experiment: Cellular JAK3 potency assay: inhibition of IL-2 stimulated pSTAT5 in Tall-1 T cells; format: cell-based; conditions: IL-2 stimulated pSTAT5, Tall-1 T cells
Procedure, shortened: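 AlphaLISA SureFire Ultra measures STAT5 Tyr694/699 phosphorylation in lysed Tall-1 human T cells. Cells were exposed to compound for 1 h at 37 °C before a 30 min IL-2 challenge (300 ng/ml final). Values are pIC50 means with standard deviation from signal-versus-concentration curves.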

SMILES | Tall-1 (pIC50)
C=CC(=O)N1CC(CCn2c(=O)ccc3cnc(Nc4cnn(CCN5CCOCC5)c4)nc32)C1 [Example 61] | B (B represents a pC50 value between 6.7 (included) and 7.5 (IC50 between 200 nM and 32 nM))
C=CC(=O)N1CC(CCn2c(=O)ccc3cnc(Nc4ccc(N5CCN(C(C)(C)C)CC5)cc4)nc32)C1 [Example 62] | A (A represents a pIC50 value≥7.5 (IC50≤32 nM))
C=CC(=O)N1CC(CCn2c(=O)ccc3cnc(Nc4cnn(CCF)c4)nc32)C1 [Example 63] | B (B represents a pC50 value between 6.7 (included) and 7.5 (IC50 between 200 nM and 32 nM))
C=CC(=O)N1CC(CCn2c(=O)ccc3cnc(Nc4ccc(-n5cccn5)cc4)nc32)C1 [Example 66] | B (B represents a pC50 value between 6.7 (included) and 7.5 (IC50 between 200 nM and 32 nM))
C=CC(=O)N1CC(CCn2c(=O)ccc3cnc(Nc4ccc(-n5ccnn5)cc4)nc32)C1 [Example 67] | B (B represents a pC50 value between 6.7 (included) and 7.5 (IC50 between 200 nM and 32 nM))

biological target: Tyk2 (Homo sapiens (Human), UniProt P29597); experiment: Biochemical Tyk2 kinase assay (LanthaScreen); conditions: not given
Sequence (P29597 whole entry): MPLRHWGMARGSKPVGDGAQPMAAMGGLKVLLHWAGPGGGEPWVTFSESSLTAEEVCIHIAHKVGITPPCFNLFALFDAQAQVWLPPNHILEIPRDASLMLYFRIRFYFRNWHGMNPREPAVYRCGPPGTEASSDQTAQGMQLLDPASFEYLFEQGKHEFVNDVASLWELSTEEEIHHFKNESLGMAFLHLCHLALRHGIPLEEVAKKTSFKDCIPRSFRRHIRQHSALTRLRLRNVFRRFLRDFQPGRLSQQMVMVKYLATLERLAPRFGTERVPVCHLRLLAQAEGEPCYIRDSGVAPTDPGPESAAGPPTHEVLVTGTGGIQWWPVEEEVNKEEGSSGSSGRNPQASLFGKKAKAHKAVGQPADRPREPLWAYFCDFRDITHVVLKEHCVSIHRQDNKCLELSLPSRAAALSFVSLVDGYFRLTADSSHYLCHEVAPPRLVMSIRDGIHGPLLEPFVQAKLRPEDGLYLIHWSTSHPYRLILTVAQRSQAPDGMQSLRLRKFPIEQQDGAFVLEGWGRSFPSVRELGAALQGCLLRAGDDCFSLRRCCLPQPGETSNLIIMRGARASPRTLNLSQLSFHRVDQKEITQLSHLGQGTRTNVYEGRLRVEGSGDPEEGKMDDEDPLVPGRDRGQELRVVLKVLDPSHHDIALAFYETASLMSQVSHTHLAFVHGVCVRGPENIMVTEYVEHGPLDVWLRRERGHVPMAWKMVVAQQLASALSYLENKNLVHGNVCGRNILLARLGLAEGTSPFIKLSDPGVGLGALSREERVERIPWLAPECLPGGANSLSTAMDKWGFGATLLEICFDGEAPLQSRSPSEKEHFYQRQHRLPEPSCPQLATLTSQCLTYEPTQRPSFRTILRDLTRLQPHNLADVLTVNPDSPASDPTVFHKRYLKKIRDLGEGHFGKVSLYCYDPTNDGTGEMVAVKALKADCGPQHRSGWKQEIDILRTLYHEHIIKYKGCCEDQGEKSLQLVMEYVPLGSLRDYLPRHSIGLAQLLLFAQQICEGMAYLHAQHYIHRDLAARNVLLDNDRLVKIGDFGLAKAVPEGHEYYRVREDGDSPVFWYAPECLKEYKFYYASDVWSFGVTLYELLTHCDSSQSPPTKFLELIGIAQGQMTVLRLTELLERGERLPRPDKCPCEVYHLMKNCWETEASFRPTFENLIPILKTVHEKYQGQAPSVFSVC
Procedure, shortened: as §1

SMILES | Tyk 2 (pKi)
C=CC(=O)N1CC(CCn2c(=O)ccc3cnc(Nc4cnn(CCN5CCOCC5)c4)nc32)C1 [Example 61] | E (E represents a pKi value of 7 or below (Ki of 100 nM or above))
C=CC(=O)N1CC(CCn2c(=O)ccc3cnc(Nc4ccc(N5CCN(C(C)(C)C)CC5)cc4)nc32)C1 [Example 62] | E (E represents a pKi value of 7 or below (Ki of 100 nM or above))
C=CC(=O)N1CC(CCn2c(=O)ccc3cnc(Nc4cnn(CCF)c4)nc32)C1 [Example 63] | E (E represents a pKi value of 7 or below (Ki of 100 nM or above))
C=CC(=O)N1CC(CCn2c(=O)ccc3cnc(Nc4ccc(-n5cccn5)cc4)nc32)C1 [Example 66] | E (E represents a pKi value of 7 or below (Ki of 100 nM or above))
C=CC(=O)N1CC(CCn2c(=O)ccc3cnc(Nc4ccc(-n5ccnn5)cc4)nc32)C1 [Example 67] | E (E represents a pKi value of 7 or below (Ki of 100 nM or above))

biological target: JAK1 (Homo sapiens (Human), UniProt P23458); experiment: Biochemical JAK1 kinase assay (LanthaScreen); conditions: not given
Sequence (P23458 whole entry): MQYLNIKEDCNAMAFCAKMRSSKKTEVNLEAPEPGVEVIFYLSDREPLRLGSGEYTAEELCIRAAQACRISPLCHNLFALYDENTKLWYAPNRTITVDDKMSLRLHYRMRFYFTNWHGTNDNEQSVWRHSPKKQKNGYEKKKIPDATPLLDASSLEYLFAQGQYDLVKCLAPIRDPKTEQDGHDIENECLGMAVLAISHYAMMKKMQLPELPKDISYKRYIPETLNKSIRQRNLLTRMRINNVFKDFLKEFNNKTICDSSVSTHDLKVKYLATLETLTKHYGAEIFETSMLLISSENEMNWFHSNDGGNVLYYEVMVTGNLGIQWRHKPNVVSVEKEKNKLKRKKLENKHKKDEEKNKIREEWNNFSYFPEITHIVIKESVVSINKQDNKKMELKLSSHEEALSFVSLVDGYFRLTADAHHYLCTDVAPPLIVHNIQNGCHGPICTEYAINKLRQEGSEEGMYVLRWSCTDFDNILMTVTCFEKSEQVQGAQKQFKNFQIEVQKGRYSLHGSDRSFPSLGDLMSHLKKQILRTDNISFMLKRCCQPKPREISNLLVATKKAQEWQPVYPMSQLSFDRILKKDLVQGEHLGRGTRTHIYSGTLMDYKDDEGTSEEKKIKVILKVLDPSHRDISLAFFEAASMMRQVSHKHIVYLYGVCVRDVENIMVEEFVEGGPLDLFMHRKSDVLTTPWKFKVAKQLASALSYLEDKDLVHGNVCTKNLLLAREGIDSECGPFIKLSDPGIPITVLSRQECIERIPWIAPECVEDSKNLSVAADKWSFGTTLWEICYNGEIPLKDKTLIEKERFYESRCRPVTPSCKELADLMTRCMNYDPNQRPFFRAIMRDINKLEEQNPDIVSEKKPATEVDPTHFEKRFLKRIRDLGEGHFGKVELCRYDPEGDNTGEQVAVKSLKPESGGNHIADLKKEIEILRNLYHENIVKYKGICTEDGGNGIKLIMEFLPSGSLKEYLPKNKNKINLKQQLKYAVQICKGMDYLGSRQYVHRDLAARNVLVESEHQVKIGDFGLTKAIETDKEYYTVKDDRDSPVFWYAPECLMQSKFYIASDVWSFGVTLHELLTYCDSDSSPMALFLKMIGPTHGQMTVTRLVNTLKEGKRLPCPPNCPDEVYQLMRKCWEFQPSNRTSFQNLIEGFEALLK
Procedure, shortened: as §1

SMILES | JAK 1 (pKi)
C=CC(=O)N1CC(CCn2c(=O)ccc3cnc(Nc4cnn(CCN5CCOCC5)c4)nc32)C1 [Example 61] | E (E represents a pKi value of 7 or below (Ki of 100 nM or above))
C=CC(=O)N1CC(CCn2c(=O)ccc3cnc(Nc4ccc(N5CCN(C(C)(C)C)CC5)cc4)nc32)C1 [Example 62] | E (E represents a pKi value of 7 or below (Ki of 100 nM or above))
C=CC(=O)N1CC(CCn2c(=O)ccc3cnc(Nc4cnn(CCF)c4)nc32)C1 [Example 63] | E (E represents a pKi value of 7 or below (Ki of 100 nM or above))
C=CC(=O)N1CC(CCn2c(=O)ccc3cnc(Nc4ccc(-n5cccn5)cc4)nc32)C1 [Example 66] | E (E represents a pKi value of 7 or below (Ki of 100 nM or above))
C=CC(=O)N1CC(CCn2c(=O)ccc3cnc(Nc4ccc(-n5ccnn5)cc4)nc32)C1 [Example 67] | E (E represents a pKi value of 7 or below (Ki of 100 nM or above))
